Measured values taken from article PMC9366271 (Journal of medicinal chemistry, 2018).
“Also recorded” adds a separate entry of the source.

Columns and labels:
[1] = biological target: D2R (Homo sapiens, UniProt P14416); assay: Dynamic mass redistribution; format: cell-based; settings: 500 nM bivalent compounds or 1 μM spiperone for 30 min, then 100 nM sumanirole
[2] = biological target: D2R (Ovis aries, UniProt A0ACI6R699); format: binding, sheep

D2R (Homo sapiens, UniProt P14416), sequence (P14416 whole entry): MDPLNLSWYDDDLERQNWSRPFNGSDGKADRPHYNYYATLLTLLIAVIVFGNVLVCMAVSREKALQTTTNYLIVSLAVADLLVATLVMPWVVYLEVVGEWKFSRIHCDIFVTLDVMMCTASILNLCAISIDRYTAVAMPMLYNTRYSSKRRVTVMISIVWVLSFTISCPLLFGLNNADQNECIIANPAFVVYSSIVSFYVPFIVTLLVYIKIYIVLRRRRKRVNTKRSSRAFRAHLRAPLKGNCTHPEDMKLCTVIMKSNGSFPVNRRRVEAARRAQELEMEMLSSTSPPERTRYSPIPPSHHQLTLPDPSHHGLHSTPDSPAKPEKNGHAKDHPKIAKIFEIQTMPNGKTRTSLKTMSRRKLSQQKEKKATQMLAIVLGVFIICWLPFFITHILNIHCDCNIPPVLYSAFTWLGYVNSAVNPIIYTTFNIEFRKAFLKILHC

magnitude of the signaling by sumanirole in presence of ligand (DMR) [1]	decrease of binding by disturber peptide TAT-TM6 ([2]; TAT-TM6 of D2R vs no peptide) [fold]	Structure (SMILES)	effect of TAT-TM6 peptides on binding ([2]; TAT-TM6 peptides of D2R and A2AR, native tissue)
significantly decreased	52	COC(=O)CN(CC(=O)NCCOCCOCCNC(=O)CCC(=O)Nc1ccc(CCN2CN(c3ccccc3)C3(CCN(CCCC(=O)c4ccc(F)cc4)CC3)C2=O)cc1)CC(=O)NCCOCCOCCNC(=O)CCC(=O)Nc1ccc(CCN2CN(c3ccccc3)C3(CCN(CCCC(=O)c4ccc(F)cc4)CC3)C2=O)cc1 [Compound 13, Methyl 19-((4-(2-(8-(4-(4-fluorophenyl)-4-oxobutyl)-4-oxo-1-phenyl-1,3,8-triazaspiro[4.5]decan-3-yl)ethyl)phenyl)amino)-3-(16-((4-(2-(8-(4-(4-fluorophenyl)-4-oxobutyl)-4-oxo-1-phenyl-1,3,8-triazaspiro[4.5]decan-3-yl)ethyl)phenyl)amino)-2,13,16-trioxo-6,9-dioxa-3,12-diazahexadecyl)-5,16,19-trioxo-9,12-dioxa-3,6,15-triazanonadecanoate]	
significantly decreased		COC(=O)CN(CC(=O)NCCCOCCOCCOCCCNC(=O)CCC(=O)Nc1ccc(CCN2CN(c3ccccc3)C3(CCN(CCCC(=O)c4ccc(F)cc4)CC3)C2=O)cc1)CC(=O)NCCCOCCOCCOCCCNC(=O)CCC(=O)Nc1ccc(CCN2CN(c3ccccc3)C3(CCN(CCCC(=O)c4ccc(F)cc4)CC3)C2=O)cc1 [Compound 12, Methyl 24-((4-(2-(8-(4-(4-fluorophenyl)-4-oxobutyl)-4-oxo-1-phenyl-1,3,8-triazaspiro[4.5]decan-3-yl)ethyl)phenyl)amino)-3-(21-((4-(2-(8-(4-(4-fluorophenyl)-4-oxobutyl)-4-oxo-1-phenyl-1,3,8-triazaspiro[4.5]decan-3-yl)ethyl)phenyl)amino)-2,18,21-trioxo-7,10,13-trioxa-3,17-diazahenicosyl)-5,21,24-trioxo-10,13,16-trioxa-3,6,20-triazatetracosanoate]	
		COC(=O)CN(CC(=O)NCCOCCOCCNC(C)=O)CC(=O)NCCOCCOCCNC(=O)CCC(=O)Nc1ccc(CCN2CN(c3ccccc3)C3(CCN(CCCC(=O)c4ccc(F)cc4)CC3)C2=O)cc1 [Compound 15, Methyl 3-(2,13-dioxo-6,9-dioxa-3,12-diazatetradecyl)-19-((4-(2-(8-(4-(4-fluorophenyl)-4-oxobutyl)-4-oxo-1-phenyl-1,3,8-triazaspiro[4.5]decan-3-yl)ethyl)phenyl)amino)-5,16,19-trioxo-9,12-dioxa-3,6,15-triazanonadecanoate]	had no effect; also recorded: Neither TAT-TM6 peptide of D2R nor A2R influenced the binding

Structure (SMILES)	magnitude of the signaling by sumanirole in presence of ligand (DMR) [1]	decrease of binding by disturber peptide TAT-TM6 ([2]; TAT-TM6 of D2R vs no peptide) [fold]	effect of TAT-TM6 peptides on binding ([2]; TAT-TM6 peptides of D2R and A2AR, native tissue)
O=C(CCCN1CCC2(CC1)C(=O)NCN2c1ccccc1)c1ccc(F)cc1 [spiperone, reference compound]	significantly decreased		
